The nature of data set [1]: excess molar enthalpy (molar enthalpy of mixing); xn = mol fraction of the nth substance listed. Particulars: 363.15 K, Liquid, Flow calorimetry.
Data set [2] can be described thus: activity coefficient (dimensionless); of the first substance listed, at infinite dilution; xn = mol fraction of the nth substance listed. Particulars: 101 kPa, Liquid, x1 = 0.
The nature of data set [3]: activity coefficient (dimensionless); of the first substance listed, at infinite dilution; wn = mass fraction of the nth substance listed. Particulars: 101 kPa, Liquid, dilutor technique, w1 = 0.

Numbers after ± are expanded uncertainties.

As for `CCCCCC[n+]1ccn(C)c1.O=S(=O)([N-]S(=O)(=O)C(F)(F)F)C(F)(F)F` + CC1CCCCC1, the excess molar enthalpy in data set [1] (1617 kPa, x2 = 0.0612) worked out at 0.0459 ± 0.00191 kcal/mol; in data set [1] (1617 kPa, x2 = 0.118), 0.092 ± 0.00382 kcal/mol; in data set [1] (1617 kPa, x2 = 0.1708) it was 0.132 ± 0.0055 kcal/mol; in data set [1] (1617 kPa, x2 = 0.2202), 0.166 ± 0.00669 kcal/mol; in data set [1] (1617 kPa, x2 = 0.2663), 0.176 ± 0.00717 kcal/mol; in data set [1] (1617 kPa, x2 = 0.3096), 0.173 ± 0.00693 kcal/mol. In addition, the excess molar enthalpy in data set [1] (1617 kPa, x2 = 0.3885) is 0.154 ± 0.00621 kcal/mol; in data set [1] (1617 kPa, x2 = 0.4586), 0.136 ± 0.0055 kcal/mol; in data set [1] (1617 kPa, x2 = 0.5213) it was 0.12 ± 0.00502 kcal/mol; in data set [1] (1617 kPa, x2 = 0.6288) it was 0.0943 ± 0.00382 kcal/mol; in data set [1] (1617 kPa, x2 = 0.7176), 0.0722 ± 0.00287 kcal/mol; in data set [1] (1617 kPa, x2 = 0.7922), 0.0525 ± 0.00217 kcal/mol. In data set [1] (1617 kPa, x2 = 0.884), the excess molar enthalpy came to 0.0269 ± 0.00112 kcal/mol.
As for `CCCCCC[n+]1ccn(C)c1.O=S(=O)([N-]S(=O)(=O)C(F)(F)F)C(F)(F)F` + CCCCCCCC, the excess molar enthalpy in data set [1] (1548 kPa, x2 = 0.0486) was found to be 0.0487 ± 0.00201 kcal/mol; in data set [1] (1548 kPa, x2 = 0.095), 0.0882 ± 0.00359 kcal/mol; in data set [1] (1548 kPa, x2 = 0.1392) it was 0.108 ± 0.0043 kcal/mol; in data set [1] (1548 kPa, x2 = 0.1814), 0.116 ± 0.00478 kcal/mol; in data set [1] (1548 kPa, x2 = 0.2217), 0.111 ± 0.00454 kcal/mol; in data set [1] (1548 kPa, x2 = 0.2603), 0.106 ± 0.0043 kcal/mol. Further, the excess molar enthalpy in data set [1] (1548 kPa, x2 = 0.3327) came to 0.0959 ± 0.00382 kcal/mol; in data set [1] (1548 kPa, x2 = 0.3993) it was 0.0877 ± 0.00359 kcal/mol; in data set [1] (1548 kPa, x2 = 0.4608) it was 0.0791 ± 0.00335 kcal/mol; in data set [1] (1548 kPa, x2 = 0.5707), 0.0636 ± 0.00263 kcal/mol; in data set [1] (1548 kPa, x2 = 0.666), 0.0483 ± 0.00201 kcal/mol; in data set [1] (1548 kPa, x2 = 0.7495), 0.0384 ± 0.0016 kcal/mol. Besides, the excess molar enthalpy in data set [1] (1548 kPa, x2 = 0.8568) was 0.0227 ± 0.000956 kcal/mol.
For `CCO` [ethanol] + CCCCCCn1cc[n+](C)c1.O=S(=O)([O-])C(F)(F)F, the activity coefficient in data set [2] (303.15 K, dilutor technique) stood at 1.05 ± 0.07; in data set [2] (313.15 K, dilutor technique), 1 ± 0.06; in data set [2] (323.15 K, dilutor technique), 0.94 ± 0.06; in data set [2] (333.15 K, dilutor technique), 0.86 ± 0.06.
`CCO` [ethanol] + CCCC[N+]1(C)CCCC1.O=S(=O)([O-])C(F)(F)F: the activity coefficient in data set [2] (313.15 K, dilutor technique) worked out at 0.95 ± 0.06; in data set [2] (323.15 K, dilutor technique), 0.92 ± 0.06; in data set [2] (333.15 K, dilutor technique) it was 0.88 ± 0.06; in data set [2] (343.15 K, dilutor technique), 0.86 ± 0.06.
On to `CCO` [ethanol] + CCOS(=O)(=O)[O-].CCn1cc[n+](C)c1, for which the activity coefficient stood at 0.57 ± 0.05 in data set [2] (323.15 K, dilutor technique); 0.6 ± 0.05 in data set [2] (333.15 K, dilutor technique); 0.65 ± 0.05 in data set [2] (343.15 K, dilutor technique); 0.7 ± 0.05 in data set [2] (353.15 K, dilutor technique).
As to `CC1CCCCC1` [methylcyclohexane] + CCCCCCCC[N+]1(C)CCCC1.O=S(=O)([N-]S(=O)(=O)C(F)(F)F)C(F)(F)F, the activity coefficient in data set [2] (303.15 K, dilutor technique) amounted to 4.59 ± 0.41; in data set [2] (313.15 K, dilutor technique), 4.41 ± 0.39; in data set [2] (323.15 K, dilutor technique), 4.29 ± 0.38; in data set [2] (333.15 K, dilutor technique) it was 4.18 ± 0.37.
As to `CC1CCCCC1` [methylcyclohexane] + CCCCCC[n+]1ccn(C)c1.O=S(=O)([N-]S(=O)(=O)C(F)(F)F)C(F)(F)F, the activity coefficient is 6.83 ± 0.61 in data set [2] (303.15 K, dilutor technique); 6.59 ± 0.59 in data set [2] (313.15 K, dilutor technique); 6.3 ± 0.56 in data set [2] (323.15 K, dilutor technique); 6.06 ± 0.54 in data set [2] (333.15 K, dilutor technique).
As for `CC1CCCCC1` [methylcyclohexane] + CCCCCCn1cc[n+](C)c1.O=S(=O)([O-])C(F)(F)F, the activity coefficient in data set [2] (303.15 K, dilutor technique) stood at 10.5 ± 0.95; in data set [2] (313.15 K, dilutor technique) it was 10.2 ± 0.9; in data set [2] (323.15 K, dilutor technique) it was 9.77 ± 0.88; in data set [2] (333.15 K, dilutor technique), 9.49 ± 0.85.
For the compound `Cc1ccccc1` [toluene] + CCCCCCCC[N+]1(C)CCCC1.O=S(=O)([N-]S(=O)(=O)C(F)(F)F)C(F)(F)F, the activity coefficient was found to be 0.67 ± 0.05 in data set [2] (303.15 K, dilutor technique); 0.73 ± 0.05 in data set [2] (313.15 K, dilutor technique); 0.8 ± 0.05 in data set [2] (323.15 K, dilutor technique); 0.86 ± 0.06 in data set [2] (333.15 K, dilutor technique).
In the case of `Cc1ccccc1` [toluene] + CCCCCC[n+]1ccn(C)c1.O=S(=O)([N-]S(=O)(=O)C(F)(F)F)C(F)(F)F, the activity coefficient in data set [2] (303.15 K, dilutor technique) was 0.85 ± 0.06; in data set [2] (313.15 K, dilutor technique), 0.95 ± 0.06; in data set [2] (323.15 K, dilutor technique), 1.05 ± 0.07; in data set [2] (333.15 K, dilutor technique) it was 1.14 ± 0.07.
Take `Cc1ccccc1` [toluene] + CCCCCCn1cc[n+](C)c1.O=S(=O)([O-])C(F)(F)F: the activity coefficient is 1.38 ± 0.09 in data set [2] (303.15 K, Dilutor technique); 1.52 ± 0.1 in data set [2] (313.15 K, Dilutor technique); 1.65 ± 0.12 in data set [2] (323.15 K, Dilutor technique); 1.75 ± 0.12 in data set [2] (333.15 K, Dilutor technique).
`O` [water] + CCCCCCn1cc[n+](C)c1.O=S(=O)([O-])C(F)(F)F: the activity coefficient in data set [3] (303.15 K) amounted to 1.31 ± 0.09; in data set [3] (313.15 K) it was 1.04 ± 0.06; in data set [3] (323.15 K), 0.82 ± 0.05; in data set [3] (333.15 K), 0.64 ± 0.05.
Turning to `O` [water] + CCCC[N+]1(C)CCCC1.O=S(=O)([O-])C(F)(F)F, the activity coefficient was determined as 0.67 ± 0.05 in data set [2] (313.15 K, dilutor technique); 0.56 ± 0.05 in data set [2] (323.15 K, dilutor technique); 0.51 ± 0.04 in data set [2] (333.15 K, dilutor technique); 0.44 ± 0.04 in data set [2] (343.15 K, dilutor technique).

The record behind these values is the NIST ThermoML archive (doi:10.1016/j.fluid.2008.03.011).
